{"source": "paper doi:10.1101/2023.04.10.536218v2", "about": "“A novel and highly specific Forssman antigen-binding protein from sheep polyomavirus” (biorxiv, 2023)", "biological_target": "ShPyV VP1", "conditions": "glycan coupled to BSA by reductive amination and immobilised on CM5 chip; multivalent (avidity); pH 7.4, 25 °C; kinetic fit"}
{"smiles": "CC(=O)N[C@H]1[C@@H](O[C@H]2[C@@H](O)[C@@H](CO)O[C@@H](O[C@H]3[C@@H](O)[C@@H](CO)O[C@H](O[C@@H]4[C@H](O)[C@@H](O)[C@H](O[C@H]5[C@H](O)[C@@H](O)C(O)O[C@@H]5CO)O[C@@H]4CO)[C@@H]3O)[C@@H]2NC(C)=O)O[C@H](CO)[C@H](O)[C@@H]1O", "note": "(stereo partly shown) [FP, Forssman pentaose]", "values": [{"measurement": "Kd", "value": 3.6, "unit": "nM"}]}
